From US8642801B2 (BHI Limited Partnership, priority 2003, dated 2014) come the findings set out here.

Structures are written as SMILES.

In assay [1] the test system is amyloid plaques in the brains of TgCRND8 mice. Put plainly: Histological ThioS (thioflavin S) study of brain plaques, long term treatment of TgCRND8 mice. The settings on record: 30 mg/kg; preliminary histochemical experiments. Format: in vivo, Mouse. The procedure: The following abbreviations are used to designate these animals in the present study: TgCRND8.B6AF1/J(N2); TgCRND8.B6AF1/J(N3). Male and female transgenic mice were given daily subcutaneous (compound BX) or oral (compounds BW and BZ) administrations of the appropriate compounds for 8 or 16 weeks.
Starting at 9 weeks of age (±1 week) animals received daily administration of their respective treatment for a period of 8 or 16 weeks, at a dose of 30 or 100 mg/kg at 10 ml/kg. The route of administration was subcutaneous for water-soluble compounds (Compound BX) and oral for compounds solubilized in methylcellulose 1% (MC 1%) (Compounds BW and BZ). At the end of the treatment periods, plasma and perfused brains were collected for quantification of Aβ levels.
For the ThioS studies, the plaques in the brains of the mice were quantified as follows. Mice were transcardially perfused with saline solution. […] Image analysis to quantify the number of plaques and the area occupied by these plaques was performed using Image Pro Plus software (Media Cybernetics, MD, USA). […]
Specifically, increases in the areas and numbers of plaques (relative to vehicle treated control) of 10 to 19.99% are scored as “+”. Decreases in the areas and numbers of plaques of 10 to 19.99% are scored as “−”. Additionally, changes of 9.99% or less in either direction are scored as “0”.

For assay [2], the system named is Aβ40 and Aβ42 peptides in plasma and brain of TgCRND8 mice. Put plainly: Short term treatment in adult transgenic CRND8 mice overexpressing βAPP: Aβ levels in plasma and brain by ELISA. In kind it is in vivo, Mouse. The settings on record: after 14 and 28 days of treatment, TgCRND8 mice. Put shortly:
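TgCRND8 mice (B6C3F1 backcross, ~11 weeks at treatment start) given short-term treatment; Aβ40 and Aβ42 in plasma and soluble/insoluble brain fractions measured by fluorometric sandwich ELISA (ex 460/em 560 nm). Levels normalized to vehicle (water or methylcellulose) groups and scored as +/− symbols by effect strength.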
(In general: An ELISA detects its analyte on a solid surface through an enzyme-linked reagent.)

On to `CC(C)(C)NCCCS(=O)(=O)O` [BX, 3-(t-butyl)amino-1-propanesulfonic acid], for which, in assay [1], the “area occupied by the plaques (ThioS staining of brain sections)” value is “decreased” and the “number of plaques (ThioS staining of brain sections)” value is listed as “decreased”. Besides, the “levels of Aβ peptides in the plasma” value in assay [2] was “significant increase”.
